From US20210386689A1, “METHODS OF TREATING CENTRAL NERVOUS SYSTEM DISORDERS” (Sunovion Pharmaceuticals Inc., priority 2018, published 2021)
Values belong to the compound of their own block, whether it stands above or below them.

How the values were obtained:
[1] = clinical; details: human, in vivo
Method: Eight clinical studies—including single dose pharmacokinetic (PK), multiple dose PK, efficacy, safety, and tolerability, human abuse liability, absorption, metabolism, and excretion, and safety, efficacy, and tolerability in adults with attention-deficit hyperactivity disorder—were completed with dasotraline. In those studies, single doses ranging from 0.2 mg to 36 mg and multiple doses from 0.5 mg/day to 8 mg/day for 21 to 56 days were evaluated. Dasotraline was slowly absorbed into the systemic circulation, reaching time of maximum observed plasma concentration (tmax) approximately 10 to 12 hours after single administration of doses ranging from 0.2 to 36 mg. The change in maximum observed plasma concentration (Cmax) with dose was nearly dose proportional for the same doses. […] Dasotraline is extensively metabolized by oxidation and subsequent phase II metabolism. CYP2B6 oxidizes dasotraline to “dasotraline oxime”: […]

[2] = biological target: T1, CYP2B6 (Homo sapiens, UniProt P20813); test: Inhibition of CYP2B6 activity in human liver microsomes (direct and time-dependent); type: in vitro ADME
T1 construct: measuring the activity of CYP2B6 in human liver microsomes; from tissue; host or cells: human liver microsomes
T1 sequence (P20813 1-491): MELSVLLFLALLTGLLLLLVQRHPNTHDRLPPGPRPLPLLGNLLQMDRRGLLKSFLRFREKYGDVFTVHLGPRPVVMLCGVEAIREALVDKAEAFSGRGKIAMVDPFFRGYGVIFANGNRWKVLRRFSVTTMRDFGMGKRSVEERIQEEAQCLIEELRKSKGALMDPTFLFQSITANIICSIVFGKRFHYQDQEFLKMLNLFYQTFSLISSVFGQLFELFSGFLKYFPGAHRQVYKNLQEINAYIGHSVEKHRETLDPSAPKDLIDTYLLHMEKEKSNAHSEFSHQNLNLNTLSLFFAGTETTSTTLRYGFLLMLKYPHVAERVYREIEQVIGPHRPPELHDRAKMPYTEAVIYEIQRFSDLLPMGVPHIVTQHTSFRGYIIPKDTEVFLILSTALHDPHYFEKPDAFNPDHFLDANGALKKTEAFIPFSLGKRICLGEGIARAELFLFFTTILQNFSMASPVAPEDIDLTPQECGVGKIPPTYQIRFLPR
Method: The inhibitory potency of dasotraline was determined in vitro by measuring the activity of CYP2B6 in human liver microsomes in the presence and absence of dasotraline. […] Furthermore, dasotraline was determined to be a time-dependent inhibitor of CYP2B6 with an apparent inactivation constant of 0.12 μM and a maximal inactivation rate constant of 0.15 min-1. Based on the Food and Drug Administration Draft Guidance: Drug Interaction Studies (February 2012) and the prediction using physiologically-based PK modeling and simulation there is a potential for dasotraline to inhibit the metabolism pathway of CYP2B6 substrates through time-dependent inhibition. Therefore, the effect of dasotraline on the PK of a CYP2B6 substrate (ie, efavirenz) was studied clinically.

[3] = clinical; details: human, in vivo; remark: listed apart in the source
Method: A randomized, 2-way crossover study to evaluate the effect of dasotraline on the pharmacokinetics (PK) of efavirenz, a sensitive cytochrome P450 2B6 (CYP2B6) substrate, and to assess the safety and tolerability of a single dose of dasotraline given concurrently with efavirenz was conducted.
Methodology: The study enrolled 29 healthy, non-smoking male and female subjects. All subjects were randomized to one of two treatment sequences: (A) Single doses of placebo and 400 mg efavirenz followed 28 days later by single doses of 24 mg dasotraline and 400 mg efavirenz; or (B) Single doses of 24 mg dasotraline and 400 mg efavirenz followed 28 days later by single doses of placebo and 400 mg efavirenz. Dasotraline and placebo were administered 6 hours prior to the planned dosing time of efavirenz. A screening period of approximately 4 weeks was followed by 2 treatment periods, each of which included approximately 78 hours in-clinic confinement followed by 3 outpatient follow-up visits. Dose administration occurred on Day 1 and Day 29. During the first treatment period, subjects were admitted to the clinic on Day −1, the day before first study drug administration (Day 1), and remained in clinic until discharge on Day 3. Subjects returned to the clinic for 3 subsequent visits (Days 5, 7, and 14) for PK sample collection. Following a washout period (consisting of 28 non-dosing days), subjects returned and were readmitted to the clinic for the second treatment period on Day 28, the day before the second study drug administration (Day 29), and remained in clinic until discharge on Day 31. Subjects returned to the clinic for 3 subsequent visits (Days 33, 35, and 42) for PK sample collection. Day 42 was the End of Study visit.
Evaluation: Blood for serial PK sampling was obtained from all subjects prior to efavirenz administration (pre-dose) and at specified time points after efavirenz administration on Days 1 and 29 for each treatment sequence. The recorded times for dasotraline PK plasma sample collections were relative to efavirenz dosing time. The primary parameters for efavirenz analysis were maximum observed plasma concentration (Cmax), time of maximum observed plasma concentration (tmax), area under the concentration-time curve (AUC) from time 0 to time t (AUC0-t), AUC from time 0 to the time of last measurable concentration (AUC0-last), AUC from time 0 extrapolated to infinity (AUC0-inf), terminal elimination rate constant (λZ), apparent terminal elimination half-life (t1/2), apparent total clearance (CL/F), and apparent volume of distribution during the terminal elimination phase (Vz/F). The primary parameters for dasotraline analysis were Cmax, AUC0-last, AUC0-t, and AUC0-inf.
Statistical Methods: All analyses involving PK data (e.g., plasma concentrations, derived PK parameters, assessment of drug-drug interaction) were performed on the PK population. For plasma concentrations of dasotraline and efavirenz, descriptive statistics (e.g., number, arithmetic mean, arithmetic standard deviation, minimum, median, maximum, 25th percentile, 75th percentile, geometric mean, and geometric coefficient of variation) were listed and summarized by time point by treatment for the PK population. Mean plasma concentration-time profiles were plotted by treatment on linear and semi-logarithmic scales. Individual subject linear and semi-logarithmic concentration-time plots, with respective treatments presented together, were included in the appendices.
To evaluate the effect of dasotraline on the PK of efavirenz, a mixed effect analysis of variance (ANOVA) was applied for the primary endpoint on natural log-transformed Cmax, AUC0-last, AUC0-t, and AUC0-inf of efavirenz. The model included treatment, sequence, and period as fixed effects and subject nested within sequence as a random effect. Only subjects who completed both treatment periods were included in the overall ANOVA to allow for an intra-subject comparison to be conducted. […]

Tmax [1]: 10 to 12 h
half-life [1]: 47.1 to 77 h
Ki ([2]; direct competitive inhibition, read-out: inhibition constant): 220 nM
apparent inactivation constant ([2]; time-dependent inhibition): 0.12 µM
maximal inactivation rate constant ([2]; time-dependent inhibition): 0.15 min⁻¹
SMILES: N[C@@H]1CC[C@@H](c2ccc(Cl)c(Cl)c2)c2ccccc21 [Dasotraline, (1R,4S)-4-(3,4-dichlorophenyl)-1,2,3,4-tetrahydronaphthalen-1-amine]

Vd/F ([3]; both sexes): 525 L
Cmax ([3]; both sexes, 400 mg): 1560 ng/mL
Vd/F ([3]; both sexes, 400 mg): 759 L
AUC(0-t) ([3]; both sexes, 400 mg, AUC0-24): 18200 ng·h/mL
AUC(0-inf) ([3]; both sexes, 400 mg, AUC0-inf): 92000 ng·h/mL
AUC(0-t) ([3]; both sexes, 400 mg, AUC0-last): 80400 ng·h/mL
half-life ([3]; both sexes, 400 mg, t1/2): 143 h
Tmax ([3]; both sexes, 400 mg, tmax, median): 3.05 h
AUC(0-t) ([3]; both sexes, Mean AUC from time 0 to 24 hours post-dose (AUC0-24)): 19000 ng·h/mL
half-life ([3]; both sexes, Mean terminal half-life): 143 h
Tmax ([3]; both sexes, Median tmax): 4 h
AUC(0-inf) ([3]; both sexes, mean AUC0-inf): 87900 ng·h/mL
AUC(0-t) ([3]; both sexes, mean AUC0-last): 112000 ng·h/mL
half-life ([3]; both sexes, t1/2): 161 h
Tmax ([3]; both sexes, tmax, median): 4 h
Mean AUC from time 0 to 24 hours post-dose (AUC0-24) ([3]; both): 17,700 h*ng/mL
Mean terminal half-life ([3]; both): 161 h
Median tmax ([3]; both): approximately 3 hours
geometric LS mean ratio for AUC0-24 ([3]; both): 107.5%
geometric LS mean ratio for AUC0-inf ([3]; both): 153.5%
geometric LS mean ratio for AUC0-last ([3]; both): 143.1%
geometric LS mean ratio for Cmax ([3]; both): 98.5%
mean AUC0-inf ([3]; both): 135,000 h*ng/mL
mean AUC0-last ([3]; both): 78,200 h*ng/mL
SMILES: O=C1Nc2ccc(Cl)cc2[C@@](C#CC2CC2)(C(F)(F)F)O1 [Efavirenz]
